From patent US12234484B2, “Culture medium for pluripotent stem cells” (PROMOCELL GMBH, priority 2017, dated 2025)

Assays:
[1] = test system: stem cells; details: cultured in the absence of FGF2; cited from earlier work
[2] = cited from earlier work; for biological half-life: under cell culture conditions
[3] = test system: hiPS cell line SBI #SC101A-1; experiment: hPSC culture, microscopic analysis of morphological growth pattern and proliferation; format: cell-based, human; details: defined, feeder-free culture on vitronectin; Example 1 medium containing only the named factor(s); no FGF-2
Description: The culture vessel was coated with 0.5 μg/cm^2 of recombinant human vitronectin as ECM. For this, 100 μl of a diluted vitronectin solution per cm^2 of culture vessel surface is applied to the culture vessel with. The coated culture vessel is left for 2 hours at room temperature. The vitronectin solution was aspirated just before seeding the cells.
The cell line used in this experiment is the human foreskin fibroblast derived hiPS cell line SBI #SC101A-1 (obtainable from System Biosciences (SBI), Palo Alto, under the defined reference number).
The stem cell culture medium was prepared as described in Example 1. For cryopreserved cells, a ROCK-Inhibitor (10 μM Y-27632 or 2 μM Thiazovivin) is added to the stem cell culture medium. Alternatively, for existing proliferating cultures a clump passage was performed as described in Example 3 below.
The hPSCs were seeded in a 1:2 to 1:3 ratio (relative to the volume of the tissue culture vessel) into the ECM coated tissue culture vessel using an appropriate amount of culture medium. For example, 2-3 ml per well are used for 6-well plates and 15-25 ml for T-75 flasks.
After plating, the subcultured hPSCs were allowed to attach overnight (12-24 hours).
A medium change was performed: the stem cell culture medium including non-attached cells was aspirated, washed once with Dulbecco's PBS, w/o Ca^2+/Mg^2+ and the cells were provided with fresh culture medium (w/o ROCK-Inhibitors).
A media change was performed every 1-3 days.
The stem cell culture medium was aspirated and the hPSCs were washed twice with Dulbecco's PBS, w/o Ca^2+/Mg^2+. Next, 200-300 μl/cm^2 of dissociation buffer was added and the solution was incubated for 6-10 minutes in the incubator at 37° C. and 5% CO2. The dissociation buffer was carefully aspirated and 1-5 ml of fresh culture medium was added. The colonies were flushed away from the surface using a serological pipet. In order to maintain cell clumps of sufficient size flushing of more than 4-5 times was avoided. Then, cell clumps were dispensed into new ECM-coated culture vessels with fresh stem cell culture medium and the culture was continued according to the cell attachment step (step 2.3) of Example 2.
Induced pluripotent stem cells were cultured in the presence of the stem cell culture medium according to Example 1 without trimipramine in order to reproduce published observations that activin a on its own cannot fully support undifferentiated maintenance of most hPSC lines (Vallier et al., 2005; Xiao et al., 2006). Initiation of the hPSC culture was performed according to Example 2, followed by subculturing the cells according to Example 3.
It was also aimed to reproduce the published partial self-renewal support capabilities of trimipramine in human pluripotent stem cells (Kumagai et al., 2013). […]

In the case of `CCN(CC)CCCC(C)Nc1c2ccc(Cl)cc2nc2ccc(OC)cc12` (centres unmarked) [mepacrine], the “expression of pluripotency markers SSEA-3, SSEA-4 TRA-1-60, TRA-1-81 and OCT4” value (“expression” below) [1] is given as “induce the expression of known pluripotency markers”.

For `CCN(CC)C(C)CN1c2ccccc2Sc2ccccc21` (centres unmarked) [profenamine], the “expression” value [1] is listed as “induce the expression of known pluripotency markers”.

In the case of `CC(CN1c2ccccc2Sc2ccccc21)N(C)C` (centres unmarked) [promethazine], the “expression” value [1] is given as “induce the expression of known pluripotency markers”.

In the case of `CC(CN(C)C)CN1c2ccccc2CCc2ccccc21` (centres unmarked) [trimipramine], the half-life [2] is given as 23 h, the “expression” value [1] is given as “induce the expression of known pluripotency markers” and the “cell proliferation / expansion of hPSC” value [3] is given as “not sufficient to effectively expand the human pluripotent stem cells”. For the same molecule, the “maintenance of undifferentiated state (morphological phenotype)” value [3] was “able to maintain the prototypical pluripotent morphological phenotype”.

In the case of “FGF-2: growth factor (FGFR ligand) traditionally used in hPSC media”, the biological half-life [2] is given as 5-7 hours.

In the case of “TGF-β1: growth factor (ALK5 ligand) traditionally used in hPSC media”, the biological half-life [2] is listed as 50 minutes.

B1: activin a: homodimer of the inhibin beta A subunit (UniProtKB P08476), member of the TGF-β superfamily (protein, UniProt P08476 311-426, looked up)
Inhibin beta A chain: GLECDGKVNICCKKQFFVSFKDIGWNDWIIAPSGYHANYCEGECPSHIAGTSGSSLSFHSTVINHYRMRGHSPFANLKSCCVPTKLRPMSMLYYDDGQNIIKKDIQNMIVEECGCS
modifications: Inhibin beta A chain
notes: homodimer of the inhibin beta A subunit (UniProtKB P08476), member of the TGF-β superfamily
In the case of B1, the “cell proliferation / expansion of hPSC” value [3] is reported as “significant cell proliferation” and the “maintenance of undifferentiated state (morphological phenotype)” value [3] is reported as “not able to robustly support the maintenance of the tested hPSC line in an undifferentiated state”.
